This test concerns the target T1, eugenol oxidase (EUGO) (Rhodococcus jostii, UniProt Q0SBK1).
T1 sequence (Q0SBK1 1-526): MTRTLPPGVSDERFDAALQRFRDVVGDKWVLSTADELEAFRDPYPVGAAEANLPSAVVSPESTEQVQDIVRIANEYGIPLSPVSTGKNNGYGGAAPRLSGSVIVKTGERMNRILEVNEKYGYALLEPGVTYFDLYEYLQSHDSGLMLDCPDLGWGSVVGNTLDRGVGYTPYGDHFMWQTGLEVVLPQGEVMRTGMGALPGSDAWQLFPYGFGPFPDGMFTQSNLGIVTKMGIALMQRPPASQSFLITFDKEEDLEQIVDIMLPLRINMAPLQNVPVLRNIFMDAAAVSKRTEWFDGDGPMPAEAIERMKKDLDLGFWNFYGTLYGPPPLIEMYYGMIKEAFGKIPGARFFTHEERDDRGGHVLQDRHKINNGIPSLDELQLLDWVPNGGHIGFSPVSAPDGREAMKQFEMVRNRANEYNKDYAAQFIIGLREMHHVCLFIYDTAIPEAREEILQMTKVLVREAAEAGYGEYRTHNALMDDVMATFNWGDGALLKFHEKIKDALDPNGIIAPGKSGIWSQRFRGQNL
The test can be described thus: steady-state kinetics. The class given is biochemical.

As a reminder, the Km is the concentration of substrate that gives half-maximal velocity. Consider `C=CCc1cc(OC)c(O)c(OC)c1` [compound 1, 2,6-dimethoxy-4-allylphenol], for which the Km amounted to 0.77 µM.

(Values after paper PMC5989697 (ACS Catalysis, 2018).)
